Results on 15 compounds are retold here after patent publication US20220218679A1, “NOVEL COMPOUNDS AND PHARMACEUTICAL COMPOSITIONS THEREOF FOR THE TREATMENT OF INFLAMMATORY DISORDERS” (Galapagos NV, priority 2019, published 2022).

pIC50: −log10 of the molar value.

In one data set the target is T1, human IRAK-4 (Homo sapiens, UniProt Q9NWZ3).
T1 construct: purchased Carna Biosciences 09 145
T1 sequence (Q9NWZ3 1-460): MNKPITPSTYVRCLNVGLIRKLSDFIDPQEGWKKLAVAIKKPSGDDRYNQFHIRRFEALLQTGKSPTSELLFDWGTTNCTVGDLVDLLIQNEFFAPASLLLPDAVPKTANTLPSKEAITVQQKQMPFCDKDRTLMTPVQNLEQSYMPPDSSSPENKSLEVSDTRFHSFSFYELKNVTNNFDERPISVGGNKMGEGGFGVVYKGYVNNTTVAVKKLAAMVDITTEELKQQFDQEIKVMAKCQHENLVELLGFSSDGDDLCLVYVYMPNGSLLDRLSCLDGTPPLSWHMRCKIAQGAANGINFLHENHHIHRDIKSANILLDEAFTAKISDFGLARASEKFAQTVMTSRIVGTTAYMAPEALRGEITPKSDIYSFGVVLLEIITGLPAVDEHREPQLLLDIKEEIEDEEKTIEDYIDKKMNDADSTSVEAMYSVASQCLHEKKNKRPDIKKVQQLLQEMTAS
The experiment in a line: Phosphorylation IC50 determination for human IRAK-4 (ADP-Glo kinase assay). Format: biochemical. The conditions noted are these: RIP140 substrate, Km ATP, read-out: IRAK4 IC50. As for the experimental part:
3.1. Phosphorylation IC50 Determination for Human IRAK-4
The phosphorylation of the substrate RIP140 (SEQ IDi1) by IRAK4 at Km ATP was detected with the ADP-Glo Kinase Assay (Promega, Cat #V9103), a luminescent kinase assay which measures the ADP formed from a kinase reaction. (Zegzouti et al., 2009) In a second step the kinase reaction is terminated and all the remaining ATP was depleted. In a final step the ADP was converted into ATP and this newly synthesized ATP was measured by using a luciferase/luciferin reaction with a luminescent reader. The luminescent signal positively correlated with kinase activity, in particular kinase inhibition giving a decrease of the luminescent signal.
For the semi-automated assay, the positive control (100% inhibition) was prepared by diluting 10 mM staurosporine stock mixture (20 μL) in water (3.8 mL) and DMSO (180 μL), thus resulting in a […] staurosporine solution at 1% DMSO (final concentration after further dilution in the kinase reaction).
For the automated assay, no pre-dilution of the 10 mM staurosporine stock was made. 10 mM staurosporine was spotted directly in the assay plate using acoustic dispensing and complemented with DMSO to result in a similar final concentration as mentioned above.
For the semi-automated assay, the negative control (0% inhibition) was prepared by mixing water (3.8 mL) and DMSO (200 μL) resulting in a final concentration of 1% DMSO after further dilution in the kinase reaction. For the automated assay no pre-dilution of DMSO was done. 100% DMSO was spotted directly on the assay plate.
The assay buffer solution was prepared at a concentration corresponding to 5 fold the final (most diluted) assay concentration by mixing a solution of 125 mM TRIS pH 7.5+0.05% Triton X-100+2.5 mM EGTA (5.27 mL) with 1M MgCl2 (72 μL), 1M DTT (57.6 μL), and 200 mM MnCl2 (360 μL).
For example, for the semi-automated method, the enzyme-substrate mixture was prepared by mixing water (3999 μL), assay buffer solution (1380 μL), 1 mM RIP140 (138 μL—SEQ ID1), and 200 ng/mL IRAK 4 (3.45 μL Carna Biosciences, 09 145).
For semi-automated method, the ATP mixture was prepared at a concentration corresponding to 2.5 fold the final (most diluted) assay concentration of the semi-automated method and 1.5 fold the final (most diluted) assay concentration of the automated method. For example, for the semi-automated method, the ATP mixture was prepared by mixing water (4126 μL), assay buffer solution (1380 μL), and 10 mM ATP (13.80 μL).
The assay was performed either in a semi-automated or fully automated manner. The assay volume and the incubation time of the ADP detection were different accordingly the method used.
3.1.3.1. Semi-Automated Assay
The compounds were prepared as a serial dilution of 10 point dose responses with 1/5 dilution steps in 100% DMSO starting from 2 mM highest concentration, diluted 1/20 in water. 1 μL was transferred dry to the assay plates.
On each assay plate 32 wells of each control (positive & negative) were added, followed by 2 μL enzyme-substrate mixture.
The reaction was started by adding 2 μL diluted ATP (final concentration Km ATP) on the assay plates. Plates were centrifuged for a few seconds at 1000 rpm followed by an incubation at r.t. for 120 min.
The reactions were stopped and the unconsumed ATP was depleted by adding 5 μL ADP-glo Reagent (Promega, Cat #V9103) to the reaction. The plates were quickly centrifuged at 1000 rpm and incubated at r.t. for 40 min corresponding to full ATP depletion.
The ADP was converted back to ATP and luciferase and luciferin were introduced to detect ATP by adding 10 μL kinase detection reagent (Promega, Cat #V9103) to the reaction. The plates were centrifuged for a few seconds at 1000 rpm and incubated at r.t. for a further 30 min.
Luminescent read out was performed on an Envision luminescent reader (Perkin Elmer). […]
(ADP-Glo first removes unused ATP, then detects ADP through luciferase.)

Another data set has as its system Human Hepatocyte. The experiment in a line: Metabolic stability in hepatocytes (human). In kind it is in vitro ADME. Conditions: 1 μM test compound, cryopreserved human hepatocytes. As for the experimental part:
4.6. Metabolic Stability in Hepatocytes
The aim of this assay is to determine the metabolic stability of the compound in hepatocytes (cryopreserved) of different species. Low hepatocyte stability may result in the formation of unwanted metabolites, high clearance, and therefore is not desirable.
The decrease in parent was assessed by measuring the percentage remaining by LC-MS/MS analysis.
A 10 mM stock solution of test compound in DMSO was first diluted in DMSO to 3 mM, and then in modified Krebs-Henseleit buffer (Sigma, K3753) to 5 μM. This compound dilution was added to a suspension of pooled cryopreserved hepatocytes (BioreclamationIVT) at 37° C. under gentle shaking.
Final reaction conditions were: 1 μM of test compound, 0.03% DMSO, 0.5 million viable hepatocytes/mL, and 75 μL incubation volume.
Testosterone (1 μM) and 7-hydroxycoumarin (1 μM) were used, respectively as phase I and phase II metabolic reaction controls.
After 0, 10, 20, 45, 90, 120 and 180 min of incubation, the reaction was terminated with 225 μL of MeCN:MeOH (2:1) containing 100 ng/mL of diclofenac as analytical internal standard. Samples were mixed, centrifuged and the supernatant analyzed by LC-MS/MS.
The instrument responses (ratios of test compound and internal standard peak areas) were referenced to the zero time point samples (considered as 100%) in order to determine the percentage of compound remaining.
Plots of percentage compound remaining were used to determine the intrinsic clearance in the hepatocyte incubations using the following equations:
Scaled Clint [L/h/kg]=Clint[μL/min/10^6 cells]*#(10^6) cells/g liver*60*( 1/10^6) Scaled Clint unbound [L/h/kg]=Clint [L/h/kg]/Fu,inc where: fu,inc equals hepatocyte binding, derived from microsomal binding (fu,mic) by following equation: […]

For orientation: pIC50 means −log10 of the IC50, conventionally taken in molar units. `COc1cn2nc(CC(F)C(C)(C)O)cc2cc1NC(=O)c1cccn(C2CC2)c1=O` (single isomer, unassigned; enantiomer a) [Compound 25, 1-cyclopropyl-N-[2-(2-fluoro-3-hydroxy-3-methyl-butyl)-6-methoxy-pyrazolo[1,5-a]pyridin-5-yl]-2-oxo-pyridine-3-carboxamide Enantiomer A]: the pIC50 at human IRAK-4 is 8.30 to 10.00. Also, in the data set with Human Hepatocyte, the “Human Hepatocyte stability (Perc. remaining at 90 min)” value came out at 97.2 Perc.
Consider `COc1cn2nc(CC(F)C(C)(C)O)cc2cc1NC(=O)c1cccn(C2CC2)c1=O` (single isomer, unassigned; enantiomer b) [Compound 26, 1-cyclopropyl-N-[2-(2-fluoro-3-hydroxy-3-methyl-butyl)-6-methoxy-pyrazolo[1,5-a]pyridin-5-yl]-2-oxo-pyridine-3-carboxamide Enantiomer B], for which, at human IRAK-4, the pIC50 is 7.30 to 8.00. In addition, the “Human Hepatocyte stability (Perc. remaining at 90 min)” value in the data set with Human Hepatocyte is on record as 97.8 Perc.
`COc1cn2nc(CCC(C)(C)O)cc2cc1NC(=O)c1cccn(C2CC2)c1=O` [Compound 1, 1-cyclopropyl-N-[2-(3-hydroxy-3-methylbutyl)-6-methoxypyrazolo[1,5-a]pyridin-5-yl]-2-oxopyridine-3-carboxamide]: the pIC50 on human IRAK-4 is 8.30 to 10.00. Moreover, in the data set on Human Hepatocyte, the “Human Hepatocyte stability (Perc. remaining at 90 min)” value is 96.6 Perc.
For `COc1cn2nc(CCC(C)(C)O)cc2cc1NC(=O)c1cccn(C)c1=O` [Compound 2, N-[2-(3-hydroxy-3-methylbutyl)-6-methoxypyrazolo[1,5-a]pyridin-5-yl]-1-methyl-2-oxopyridine-3-carboxamide] the same measures were 8.30 to 10.00 and 100.45 Perc.
The matching figures for `COc1cn2nc(CCC(C)(C)O)cc2cc1NC(=O)c1cccc(C(F)(F)F)n1` [Compound 3, N-[2-(3-hydroxy-3-methylbutyl)-6-methoxypyrazolo[1,5-a]pyridin-5-yl]-6-(trifluoromethyl)pyridine-2-carboxamide]: 8.30 to 10.00 and 22.8 Perc.
For `CC(C)(O)CCc1cc2cc(NC(=O)c3cccc(C(F)(F)F)n3)c(C(N)=O)cn2n1` [Compound 4, 2-(3-hydroxy-3-methylbutyl)-5-[[6-(trifluoromethyl)pyridine-2-carbonyl]amino]pyrazolo[1,5-a]pyridine-6-carboxamide], the pIC50 at human IRAK-4 was 8.30 to 10.00.
For `CNC(=O)c1cn2nc(CCC(C)(C)O)cc2cc1NC(=O)c1cccc(C(F)(F)F)n1` [Compound 5, 2-(3-hydroxy-3-methylbutyl)-N-methyl-5-[[6-(trifluoromethyl)pyridine-2-carbonyl]amino]pyrazolo[1,5-a]pyridine-6-carboxamide], the pIC50 on human IRAK-4 is 8.30 to 10.00. In addition, the “Human Hepatocyte stability (Perc. remaining at 90 min)” value in the data set with Human Hepatocyte was 94.5 Perc.
On to `COc1cn2nc(CCC(C)(C)O)cc2cc1NC(=O)c1cccn(C(F)F)c1=O` [Compound 7, 1-(difluoromethyl)-N-[2-(3-hydroxy-3-methyl-butyl)-6-methoxy-pyrazolo[1,5-a]pyridin-5-yl]-2-oxo-pyridine-3-carboxamide], for which, at human IRAK-4, the pIC50 is 8.00 to 8.30.
In the case of `CNC(=O)c1cn2nc(C3CCCS(=O)(=O)C3)cc2cc1NC(=O)c1cccc(C(F)(F)F)n1` (stereo not shown) [Compound 8, 2-(1,1-dioxothian-3-yl)-N-methyl-5-[[6-(trifluoromethyl)pyridine-2-carbonyl]amino]pyrazolo[1,5-a]pyridine-6-carboxamide], the pIC50 at human IRAK-4 is 8.30 to 10.00. Also, in the data set with Human Hepatocyte, the “Human Hepatocyte stability (Perc. remaining at 90 min)” value is recorded as 107 Perc.
Consider `CCOc1cn2nc(CCC(C)(C)O)cc2cc1NC(=O)c1cccn(C(F)F)c1=O` [Compound 9, 1-(difluoromethyl)-N-[6-ethoxy-2-(3-hydroxy-3-methyl-butyl)pyrazolo[1,5-a]pyridin-5-yl]-2-oxo-pyridine-3-carboxamide], for which the pIC50 on human IRAK-4 is 8.00 to 8.30. Moreover, the “Human Hepatocyte stability (Perc. remaining at 90 min)” value in the data set on Human Hepatocyte is recorded as 85.6 Perc.
`CNC(=O)c1cn2nc(C3CCN(C)CC3)cc2cc1NC(=O)c1cccc(C(F)(F)F)n1` [Compound 12, N-methyl-2-(1-methyl-4-piperidyl)-5-[[6-(trifluoromethyl)pyridine-2-carbonyl]amino]pyrazolo[1,5-a]pyridine-6-carboxamide]: at human IRAK-4, the pIC50 is 8.30 to 10.00.
Take `COc1c(NC(=O)c2cccn(C3CC3)c2=O)cc2cc(CCC(C)(C)O)nn2c1C` [Compound 13, 1-cyclopropyl-N-[2-(3-hydroxy-3-methyl-butyl)-6-methoxy-7-methyl-pyrazolo[1,5-a]pyridin-5-yl]-2-oxo-pyridine-3-carboxamide]: at human IRAK-4, the pIC50 was 7.30 to 8.00. Moreover, the “Human Hepatocyte stability (Perc. remaining at 90 min)” value in the data set on Human Hepatocyte was found to be 98.45 Perc.
Regarding `CNC(=O)c1cn2nc(C3CCOCC3)cc2cc1NC(=O)c1cccc(C(F)F)n1` [Compound 15, 5-[[6-(difluoromethyl)pyridine-2-carbonyl]amino]-N-methyl-2-tetrahydropyran-4-yl-pyrazolo[1,5-a]pyridine-6-carboxamide], the pIC50 on human IRAK-4 is 8.30 to 10.00.
In the case of `NC(=O)c1cn2nc(C3CCOCC3)cc2cc1NC(=O)c1cccc(C(F)F)n1` [Compound 16, 5-[[6-(difluoromethyl)pyridine-2-carbonyl]amino]-2-tetrahydropyran-4-yl-pyrazolo[1,5-a]pyridine-6-carboxamide], the pIC50 on human IRAK-4 is 8.30 to 10.00. Moreover, in the data set with Human Hepatocyte, the “Human Hepatocyte stability (Perc. remaining at 90 min)” value is recorded as 75.95 Perc.
Take `CNC(=O)c1cn2nc(CCC(C)(C)O)cc2cc1NC(=O)c1cccc(C(F)F)n1` [Compound 19, 5-[[6-(difluoromethyl)pyridine-2-carbonyl]amino]-2-(3-hydroxy-3-methyl-butyl)-N-methyl-pyrazolo[1,5-a]pyridine-6-carboxamide]: the pIC50 on human IRAK-4 is 8.30 to 10.00.
